# Data reported in patent publication US10568876B2, “Tetrahydroisoquinoline derivatives useful as inhibitors of diacylglyceride O-acyltransferase 2” (Merck Sharp & Dohme Corp., priority 2014, dated 2020).
# Molecular target: hDGAT2 (Homo sapiens (Human), UniProt Q96PD7)
# Test: DGAT2 Enzymatic Activity Assay
# Type: biochemical
# Conditions: hDGAT2 Sf-9 membrane prep; 25 μM diolein, 10 μM oleoyl-CoA; triolein product by LC/MS/MS; read-out: IC50 values for inhibition of DGAT2
# Procedure: Sf-9 insect cells were maintained in Grace's insect cell culture medium with 10% heated-inactivated fetal bovine serum, 1% Pluronic F-68 and 0.14 μg/ml Kanamycine sulfate in Erlenmeyer flasks at 28° C. in a shaker incubator. After infection with untagged hDGAT2 baculovirus at multiplicity of infection (MOI) 0.1 for 48 hours, cells were harvested. Cell pellets were suspended in buffer containing 10 mM Tris-HCl (pH 7.5), 1 mM EDTA (pH 8.0), 250 mM sucrose and Complete Protease Inhibitor Cocktail (Roche Diagnostics Corp., Indianapolis, Ill.), and sonicated on ice. Membrane fractions were isolated by ultracentrifugation (100,000×g pellet), resuspended in the same buffer, and frozen (−80° C.) for later use. The protein concentration was determined with the BCA Protein Assay kit (Pierce Biotechnology Inc., Rockford, Ill.). Expression of protein levels was analyzed by immunoblotting with goat polyclonal DGAT2 antibody C-15 and donkey anti-goat IgG HRP (Santa Cruz Biotechnology, Inc., Santa Cruz, Calif.) followed by detection with ECL reagent (GE Healthcare, Piscataway, N.J.).
# LC/MS/MS analyses were performed using Thermal Fisher's LX4-TSQ Vantage system. This system consists of an Agilent binary high-performance liquid chromatography (HPLC) pumps and a TSQ Vantage triple quadrupole MS/MS instrument. For each sample, 2 μL, samples from the top organic layer of in-plate liquid-liquid extraction were injected onto a Thermo Betabasic C4 column (2.1 mm×20 mm, 5 μm particle size). The samples were then eluted using the following conditions; mobile phase: methanol/water with 0.1% ammonium format=92/8 (v/v), flow rate: 1 mL/min, temperature: 25 C. Data was acquired in positive mode using a heated electrospray ionization (HESI) interface. The operational parameters for the TSQ Vantage MS/MS instrument were a spray voltage of 3000 V, capillary temperature of 280° C., vaporizer temperature 400° C., shealth gas 60 arbitrary unit, Aux gas 40 arbitrary units, S-lens 113 and collision gas 0.16 Pascals. […] (SRM) chromatograms of triolein (Q1: 902.9>Q3: 602.3) and internal standard (Q1: 902.9>Q3: 602.3) were collected for 40 sec. The peak area was integrated by Xcalibur Quan software. The ratio between the triolein generated in the reaction and spiked in internal standard were used to generate percentage inhibition and IC50 values. Compound percentage inhibition was calculated by the following formula: Inhibition %=1-[(compound response low control)/(high control low control)]×100%. Potent compounds were titrated and IC50 were calculated by 4 parameter sigmoidal curve fitting formula.
# DGAT2 activity was determined by measuring the amount of enzymatic product triolein (1,2,3-Tri(cis-9-octadecenoyl)glycerol) using the membrane prep mentioned above. The assay was carried out in deep well 384 plates in a final volume of 40 μL at room temperature. The assay mixture contained the following: assay buffer (100 mM Tris.Cl, pH 7.0, 20 mM MgCl2, 5% ethanol), 25 μM of diolein, 10 μM of oleoyl-CoA and 10 ng/μL of DGAT2 membrane.
# Chain of hDGAT2 (Q96PD7 whole entry): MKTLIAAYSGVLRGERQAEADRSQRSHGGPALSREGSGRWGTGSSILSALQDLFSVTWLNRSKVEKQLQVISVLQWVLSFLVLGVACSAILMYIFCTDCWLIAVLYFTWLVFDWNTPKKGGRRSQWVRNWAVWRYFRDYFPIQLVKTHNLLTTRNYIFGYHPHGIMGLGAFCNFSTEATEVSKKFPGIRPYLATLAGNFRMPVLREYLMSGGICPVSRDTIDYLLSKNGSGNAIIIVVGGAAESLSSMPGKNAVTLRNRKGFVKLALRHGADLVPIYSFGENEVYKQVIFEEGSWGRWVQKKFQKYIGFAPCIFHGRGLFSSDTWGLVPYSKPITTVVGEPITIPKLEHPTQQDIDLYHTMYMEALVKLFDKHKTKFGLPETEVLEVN
row,IC50 [nM],Compound
1,82.3,"Cc1cncc(-c2ccc(CNC(=O)[C@@H]3C[C@H]3c3ccccc3)c3c2CCN(C(=O)NC(C)(C)C)C3)c1 (relative stereo) [Example 8, N-(tert-butyl)-5-(5-methylpyridin-3-yl)-8-(((trans)-2-phenylcyclopropanecarboxamido)methyl)-3,4-dihydroisoquinoline-2(1H)-carboxamide]"
2,101,"Cc1noc([C@@H]2C[C@H]2C(=O)NCc2ccc(-c3cccc(C(F)(F)F)c3)c3c2CN(C(=O)Nc2cccnc2)CC3)n1 (relative stereo) [Example 6, 8-(((trans)-2-(3-methyl-1,2,4-oxadiazol-5-yl)cyclopropanecarboxamido)methyl)-N-(pyridin-3-yl)-5-(3-(trifluoromethyl)phenyl)-3,4-dihydroisoquinoline-2(1H)-carboxamide]"
3,8.5,"COc1cccc(-c2ccc(CNC(=O)[C@H]3C[C@@H]3c3cccnc3)c3c2CCN(C(=O)NC(C)(C)C)C3)c1 (relative stereo) [Example 19, N-(tert-butyl)-5-(3-methoxyphenyl)-8-(((trans)-2-(pyridin-3-yl)cyclopropanecarboxamido)methyl)-3,4-dihydroisoquinoline-2(1H)-carboxamide]"
4,24,"Cc1noc(C2CC2C(=O)NCc2ccc(-c3cccc(OC(F)(F)F)c3)c3c2CN(C(=O)NC2(C)CCS(=O)(=O)C2)CC3)n1 (centres unmarked) [Example 58, N-(3-methyl-1,1-dioxidotetrahydrothiophen-3-yl)-8-((2-(3-methyl-1,2,4-oxadiazol-5-yl)cyclopropanecarboxamido)methyl)-5-(3-(trifluoromethoxy)phenyl)-3,4-dihydroisoquinoline-2(1H)-carboxamide]"
5,818,"COc1cccc(-c2ccc(CNC(=O)[C@@H]3C[C@H]3c3ccccc3)c3c2CCN(C(=O)N2CCOCC2)C3)c1 (relative stereo) [Example 62, (trans)-N-((5-(3-methoxyphenyl)-2-(morpholine-4-carbonyl)-1,2,3,4-tetrahydroisoquinolin-8-yl)methyl)-2-phenylcyclopropanecarboxamide]"
6,832,"CC(C)(C)NC(=O)N1CCc2c(-c3cccc(NS(C)(=O)=O)c3)ccc(CNC(=O)[C@@H]3C[C@H]3c3ccccc3)c2C1 (relative stereo) [Example 39, N-(tert-butyl)-5-(3-(methylsulfonamido)phenyl)-8-(((trans)-2-phenylcyclopropanecarboxamido)methyl)-3,4-dihydroisoquinoline-2(1H)-carboxamide]"
7,3090,"COC(=O)C1CCN(C(=O)N2CCc3c(-c4cccc(OC)c4)ccc(CNC(=O)[C@@H]4C[C@H]4c4ccccc4)c3C2)CC1 [Example 63, methyl 1-(5-(3-methoxyphenyl)-8-(((trans)-2-phenylcyclopropanrcarboxamido)methyl)-1,2,3,4-tetrahydroisoquinoline-2-carbonyl)piperidine-4-carboxylate]"
8,5490,"COC(=O)c1cccc(-c2ccc(CNC(=O)C3CC3c3ccccc3)c3c2CCN(C(=O)c2cccc(-n4cccc4)c2)C3)c1 (centres unmarked) [Example 124, methyl 3-(2-(3-(1H-pyrrol-1-yl)benzoyl)-8-((2-phenylcyclopropanecarboxamido)methyl)-1,2,3,4-tetrahydroisoquinolin-5-yl)benzoate]"
9,1640,"COc1cccc(-c2ccc(CNC(=O)[C@@H]3C[C@H]3c3ccccc3)c3c2CCN(C(=O)Nc2cc(C)no2)C3)c1 (relative stereo) [Example 20, 5-(3-methoxyphenyl)-N-(3-methylisoxazol-5-yl)-8-(((trans)-2-phenylcyclopropanecarboxamido)methyl)-3,4-dihydroisoquinoline-2(1H)-carboxamide]"
10,887,"COc1cccc(-c2ccc(CNC(=O)[C@@H]3C[C@H]3c3ccccc3)c3c2CCN(C(=O)C(C)(C)C)C3)c1 (relative stereo) [Example 113, (trans)-N-((5-(3-methoxyphenyl)-2-pivaloyl-1,2,3,4-tetrahydroisoquinolin-8-yl)methyl)-2-phenylcyclopropanecarboxamide]"
11,59.8,"Cc1noc2ccc(-c3ccc(CNC(=O)[C@@H]4C[C@H]4c4ccccc4)c4c3CCN(C(=O)NC(C)(C)C)C4)cc12 (relative stereo) [Example 27, N-(tert-butyl)-5-(3-methylbenzo[d]isoxazol-5-yl)-8-(((trans)-2-phenylcyclopropanecarboxamido)methyl)-3,4-dihydroisoquinoline-2(1H)-carboxamide]"
12,5090,"Cc1noc([C@@H]2C[C@H]2C(=O)NCc2ccc(-c3cccc(OC(F)(F)F)c3)c3c2CN(Cc2noc(C(C)C)n2)CC3)n1 (relative stereo) [Example 104, (trans)-N-((2-((5-isopropyl-1,2,4-oxadiazol-3-yl)methyl)-5-(3-(trifluoromethoxy)phenyl)-1,2,3,4-tetrahydroisoquinolin-8-yl)methyl)-2-(3-methyl-1,2,4-oxadiazol-5-yl)cyclopropanecarboxamide]"
13,971,"COc1cccc(-c2ccc(CNC(=O)[C@@H]3C[C@H]3c3ccccc3)c3c2CCN(C(=O)c2cc(F)cc(F)c2)C3)c1 (relative stereo) [Example 111, (trans)-N-((2-(3,5-difluorobenzoyl)-5-(3-methoxyphenyl)-1,2,3,4-tetrahydroisoquinolin-8-yl)methyl)-2-phenylcyclopropanecarboxamide]"
14,9.88,"COC(=O)c1cccc(-c2ccc(CNC(=O)C3CC3c3ccccc3)c3c2CCN(C(=O)NC2CC(F)(F)C2)C3)c1 (centres unmarked) [Example 56, methyl 3-(2-((3,3-difluorocyclobutyl)carbamoyl)-8-((2-phenylcyclopropanecarboxamido)methyl)-1,2,3,4-tetrahydroisoquinolin-5-yl) benzoate]"
15,1590,"COC(=O)c1cccc(-c2ccc(CNC(=O)C3CC3c3ccccc3)c3c2CCN(C(=O)C2(C#N)CC2)C3)c1 (centres unmarked) [Example 128, methyl 3-(2-(1-cyanocyclopropanecarbonyl)-8-((2-phenylcyclopropanecarboxamido)methyl)-1,2,3,4-tetrahydroisoquinolin-5-yl)benzoate]"
16,632,"COC(=O)c1cccc(-c2ccc(CNC(=O)C3CC3c3ccccc3)c3c2CCN(C(=O)c2c[nH]nc2C2CC2)C3)c1 (centres unmarked) [Example 121, methyl 3-(2-(3-cyclopropyl-1H-pyrazole-4-carbonyl)-8-((2-phenylcyclopropanecarboxamido)methyl)-1,2,3,4-tetrahydroisoquinolin-5-yl)benzoate]"
17,13.6,"Cc1noc([C@@H]2C[C@H]2C(=O)NCc2ccc(-c3cccc(OC(F)(F)F)c3)c3c2CN(C(=O)NC2(C)COC2)CC3)n1 (relative stereo) [Example 67, 8-(((trans)-2-(3-methyl-1,2,4-oxadiazol-5-yl)cyclopropanecarboxamido)methyl)-N-(3-methyloxetan-3-yl)-5-(3-(trifluoromethoxy)phenyl)-3,4-dihydroisoquinoline-2(1H)-carboxamide]"
18,144,"COc1cccc(-c2ccc(CNC(=O)[C@@H]3C[C@H]3c3nc(C)no3)c3c2CCN(C(=O)Nc2ccon2)C3)c1 (relative stereo) [Example 25, N-(isoxazol-3-yl)-5-(3-methoxyphenyl)-8-(((trans)-2-(3-methyl-1,2,4-oxadiazol-5-yl)cyclopropanecarboxamido)methyl)-3,4-dihydroisoquinoline-2(1H)-carboxamide]"
19,238,"Cc1noc(C2CC2C(=O)NCc2ccc(-c3cccc(OC(F)(F)F)c3)c3c2CN(C(=O)NC2CCS(=O)(=O)C2)CC3)n1 (centres unmarked) [Example 76, N-(1,1-dioxidotetrahydrothiophen-3-yl)-8-((2-(3-methyl-1,2,4-oxadiazol-5-yl)cyclopropanecarboxamido)methyl)-5-(3-(trifluoromethoxy)phenyl)-3,4-dihydroisoquinoline-2(1H)-carboxamide]"
20,1310,COc1cccc(-c2ccc(CNC(=O)[C@@H]3C[C@H]3c3ccccc3)c3c2CCN(C(=O)C(CO)C(F)(F)F)C3)c1 (some centres unmarked) [Example 118]
